# Activity calls are given as the source filed them. The calls are words filed in the database; no cut-off is given here.
# How the values were obtained:
# Hep 3B2 [1] = assay: Cytotoxicity against human Hep3B cells assessed as reduction in cell viability incubated for 72 hrs by MTT assay; format: functional, cell-based
# HepG2 [2] = assay: Cytotoxicity against human HepG2 cells assessed as reduction in cell viability incubated for 72 hrs by MTT assay; format: functional, cell-based; settings: HepG2, 72 h
# MDA-MB-231 [3] = assay: Cytotoxicity against human MDA-MB-231 cells assessed as reduction in cell viability incubated for 72 hrs by MTT assay; format: functional, cell-based; settings: MDA-MB-231, 72 h
# A549 [4] = assay: Cytotoxicity against human A549 cells assessed as reduction in cell viability incubated for 72 hrs by MTT assay; format: functional, cell-based; settings: A549, 72 h
# [5] = target: T1, 26S proteasome non-ATPase regulatory subunit 10 (Homo sapiens) (UniProt O75832); assay: Binding affinity to recombinant human His-tagged gankyrin expressed in Escherichia coli assessed as change in melting temperature at 300 uM by SYPRO orange dye based thermal shift assay
# T1 sequence (whole entry): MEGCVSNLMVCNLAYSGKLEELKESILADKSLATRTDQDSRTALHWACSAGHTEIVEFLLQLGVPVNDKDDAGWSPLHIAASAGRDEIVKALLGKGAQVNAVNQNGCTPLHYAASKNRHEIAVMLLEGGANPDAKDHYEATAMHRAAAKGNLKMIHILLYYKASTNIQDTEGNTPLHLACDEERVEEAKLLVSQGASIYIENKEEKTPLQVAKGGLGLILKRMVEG
# [6] = Cytotoxicity against human HuH-6 cells assessed as reduction in cell viability incubated for 72 hrs by MTT assay; format: functional, cell-based; settings: HuH-6, 72 h
# HepG2 [7] = assay: Potency index, ratio of IC50 of Cjoc42 to IC50 of compound for cytotoxicity against human HepG2 cells assessed as reduction in cell viability incubated for 72 hrs by MTT assay; format: functional
# MDA-MB-231 [8] = assay: Potency index, ratio of IC50 of Cjoc42 to IC50 of compound for cytotoxicity against human MDA-MB-231 cells assessed as reduction in cell viability incubated for 72 hrs by MTT assay; format: functional
# [9] = Potency index, ratio of IC50 of Cjoc42 to IC50 of compound for cytotoxicity against human HuH-6 cells assessed as reduction in cell viability incubated for 72 hrs by MTT assay; format: functional
# Hep 3B2 [10] = assay: Potency index, ratio of IC50 of Cjoc42 to IC50 of compound for cytotoxicity against human Hep3B cells assessed as reduction in cell viability incubated for 72 hrs by MTT assay; format: functional
# A549 [11] = assay: Potency index, ratio of IC50 of Cjoc42 to IC50 of compound for cytotoxicity against human A549 cells assessed as reduction in cell viability incubated for 72 hrs by MTT assay; format: functional
# [12] = target: T1, 26S proteasome non-ATPase regulatory subunit 10 (Homo sapiens); assay: Inhibition of gankyrin in human Hep3B cells assessed as increase in p53 level at 12.5 to 50 uM by immunoblot assay; format: cell-based; settings: dose 12.5-50 µM
# [13] = target: T1, 26S proteasome non-ATPase regulatory subunit 10 (Homo sapiens); assay: Inhibition of gankyrin in human HuH-6 cells assessed as increase in phopho-Rb level at 25 to 100 uM by immunoblot assay; format: cell-based; settings: dose 25-100 µM
# [14] = target: T1, 26S proteasome non-ATPase regulatory subunit 10 (Homo sapiens); assay: Inhibition of gankyrin in human Hep3B cells assessed as increase in CUGBP1 level at 12.5 to 50 uM by immunoblot assay; format: cell-based; settings: dose 12.5-50 µM
# [15] = target: T1, 26S proteasome non-ATPase regulatory subunit 10 (Homo sapiens); assay: Inhibition of gankyrin in human HuH-6 cells assessed as increase in p53 level at 25 to 100 uM by immunoblot assay; format: cell-based; settings: dose 25-100 µM
ΔTm [5],inhibition [12],inhibition [13],inhibition [14],inhibition [15],Compound,IC50 (Hep 3B2 [1]),IC50 (HepG2 [2]),IC50 (MDA-MB-231 [3]),IC50 (A549 [4]),IC50 [6],Ratio IC50 (HepG2 [7]),Ratio IC50 (MDA-MB-231 [8]),Ratio IC50 [9],Ratio IC50 (Hep 3B2 [10]),Ratio IC50 (A549 [11])
0.5 °C,,,,,COC(=O)c1ccc(-n2cc(CCCOS(=O)(=O)c3ccc(C)cc3)nn2)cc1,> 100 µM,> 100 µM,> 100 µM,> 100 µM,70.7 µM,,,,,
0.17 °C,,,,,COc1cccc2c1O[C@@](C)(CCC(=O)O)[C@@H]1CC[C@@H](CCCN)O[C@@H]21,,,,,,,,,,
0.29 °C,,,,,CS(=O)(=O)Cc1cccc(C(=O)NS(=O)(=O)c2ccc(S(C)(=O)=O)cc2)c1,,,,,,,,,,
7.92 °C,,,,,O=C(O)CN(Cc1ccc(Cl)cc1)C(=O)c1cnc(N2CCC[C@H]2COc2ccc(Cl)cc2)nc1CCc1ccccc1,25.5 µM,52.7 µM,88.1 µM,45.6 µM,44.3 µM,1.9,1.1,1.6,3.9,2.2
1.94 °C,Active,Active,Active,Active,O=C(O)COc1ccc(CC(=O)O)cc1-c1cc(-c2ccc(Cl)cc2)n(CCc2ccccc2)n1,> 100 µM,> 100 µM,> 100 µM,> 100 µM,> 100 µM,,,,,

# From ChEMBL document CHEMBL4819091, “Identification of novel gankyrin binding scaffolds by high throughput virtual screening” (Bioorg Med Chem Lett, 2021)
